Columns and labels:
PKC-β = target: T1, PKC-β (Homo sapiens, UniProt P05771); experiment: Western blot of PKC-β in bryostatin 1 treated U937 cells; format: cell-based
T1 construct: endogenous in cells; host or cells: U937 human leukemia cells
Description: Human leukemia cells U937 in the amount of 0.5×10^6 were treated with various amount of bryostatin 1 for 24 hours. Subsequently, the cells were solubilized for preparation of protein samples according to a routine procedure. The protein samples from bryostatin treated cells were then used in Western blot analysis with a protein kinase C-β specific antiserum previously described in Ways et al., Cell Growth & Differentiation 1994, 5: 1195-1203. […] In a repeated experiment, similar results were obtained.

[1] = system: Human leukemia cells U937; experiment: Viability of U937 cells after γ-irradiation (propidium iodide exclusion, FACS); format: cell-based; conditions: 3 nM bryostatin 1 for 24 hours, then 500 or 1000 rads; viability 72 hours after irradiation; triplicate
Description: Human leukemia cells U937 were treated for 24 hours with either 3 nM bryostatin 1 or the control solution, i.e., the vehicle for bryostatin 1. The cells were then irradiated with either 500 or 1000 rads of γ-irradiation. Seventy-two hours after irradiation, cellular viability was examined using propidium iodide exclusion and quantified by FACS analysis as previously described in Ways et al., Cell Growth & Differentiation 1994, 5: 1195-1203. Viability assays were performed in triplicate. […] Similar results were obtained in several repeated experiments.

protein kinase C = conditions: statement in words, cited from earlier work

T1 sequence (P05771 whole entry): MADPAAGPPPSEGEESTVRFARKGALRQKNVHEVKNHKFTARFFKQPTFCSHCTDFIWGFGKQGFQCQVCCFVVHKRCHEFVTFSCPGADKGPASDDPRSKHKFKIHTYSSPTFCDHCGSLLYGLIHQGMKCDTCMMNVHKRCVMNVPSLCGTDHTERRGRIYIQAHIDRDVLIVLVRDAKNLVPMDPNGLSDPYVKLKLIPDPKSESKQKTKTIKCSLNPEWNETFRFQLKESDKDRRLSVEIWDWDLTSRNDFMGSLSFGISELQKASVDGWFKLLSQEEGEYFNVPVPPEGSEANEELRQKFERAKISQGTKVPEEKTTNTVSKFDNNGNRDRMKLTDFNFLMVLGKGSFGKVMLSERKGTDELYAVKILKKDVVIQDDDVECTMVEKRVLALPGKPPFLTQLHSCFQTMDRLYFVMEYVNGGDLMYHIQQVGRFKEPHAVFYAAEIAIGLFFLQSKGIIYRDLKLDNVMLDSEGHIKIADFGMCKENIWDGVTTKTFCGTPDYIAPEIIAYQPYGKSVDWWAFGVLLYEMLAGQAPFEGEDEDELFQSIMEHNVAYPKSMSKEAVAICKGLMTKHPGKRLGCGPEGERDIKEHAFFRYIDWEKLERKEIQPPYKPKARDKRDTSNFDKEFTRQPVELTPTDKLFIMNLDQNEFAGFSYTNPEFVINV

Row | SMILES | time within which bryostatin treatment caused PKC-β activity to decrease (PKC-β; 1 nM bryostatin) [h] | time within which bryostatin treatment caused PKC-β activity to decrease (PKC-β; 10 nM bryostatin) [h] | γ-irradiation-induced apoptosis [1] | isozyme selectivity (protein kinase C; selective to protein kinase C over other kinases) | protein kinase C inhibition (protein kinase C; no value)
1 | CCC/C=C/C=C/C(=O)O[C@H]1/C(=C/C(=O)OC)C[C@H]2C[C@H]([C@@H](C)O)OC(=O)C[C@H](O)C[C@@H]3C[C@H](OC(C)=O)C(C)(C)[C@](O)(C[C@@H]4C/C(=C/C(=O)OC)C[C@H](/C=C/C(C)(C)[C@]1(O)O2)O4)O3 [bryostatin 1] | ≤ 24 | ≤ 2 | enhanced |  | 
2 | CN(C)C[C@@H]1CCn2cc(c3ccccc32)C2=C(C(=O)NC2=O)c2cn(c3ccccc23)CCO1.Cl [Example 5g, (S)-3,4-[N, N′-1,1′-((2″-ethoxy)-3′″(O)-4′″-(N,N-dimethylamino)-butane)-bis-(3,3′-indolyl)]-1(H)-pyrrole-2,5-dione Hydrochloride Salt] |  |  |  | selective for the beta-1 and beta-2 isozymes | potent protein kinase C inhibitor

From patent US6486179B2, “Use of protein kinase C inhibitors to enhance the clinical efficacy of oncolytic agents and radiation therapy” (Eli Lilly and Company, priority 1996, dated 2002)
